We go through one molecule from patent publication US12070033B1, “Aquatic herbicide having non-herbicidal functional ingredients” (SePRO Corporation, priority 2019, dated 2024).

This experiment concerns hydrilla. Briefly: Total phosphorus extracted from hydrilla and from the water in which it was located. Format: in vivo, Hydrilla verticillata. The conditions noted are these: 5 ppm dipotassium endothall. The protocol: Turning now to FIG. 7, treatment of aquatic weeds with the aquatic herbicidal formulation results in both an increased release of nutrients, such as phosphorus, from treated plants and a reduction from the water column of those nutrients released. In one experiment, total phosphorus was extracted from hydrilla and from water in which the hydrilla was located. In one test group, the hydrilla was untreated (control group). In a second test group, the hydrilla was treated with Formulation 1 (5 ppm dipotassium endothall) and, in a third test group, the hydrilla was treated with Aquathol® K (5 ppm dipotassium endothall). In the untreated control group, the plants remained healthy and pulled available phosphorus from the water column, resulting in a lower amount of phosphorus in the water (indicated by the darker shading at the bottom of each column) as compared to groups treated with Formulation 1 and Aquathol® K (as indicated by the lighter shading at the top of each column).

Regarding `O=C([O-])[C@@H]1[C@H](C(=O)[O-])[C@H]2CC[C@@H]1O2.[K+].[K+]` [dipotassium endothall], the “plant's phosphorus released into the water” value is recorded as “approximately 27%”.
